This is an account of results in patent US8445500B2, “Pesticidal compositions” (Dow AgroSciences, LLC., priority 2007, dated 2013).

For experiment [1], the system named is Cotton Aphid Aphis gossypii. In words: Insecticidal assay 14, cotton aphid, foliar spray on squash. The following applies: A. gossypii all life stages on squash; 50 and 5 parts per million spray solutions; assessed 3 days after treatment. The class given is in vivo. The procedure: 14. Insecticidal Assay for Cotton Aphid Aphis gossypii:
Objective: To assess the insecticidal activity of compounds against A. gossypii through contact and ingestion.
Formulation and application: One (1) milligram of each technical synthetic organic compound was dissolved in 1 milliliters of a 90:10 acetone:ethanol solvent. This 1 milliliter of chemical solution was added to 19 milliliters of distilled water containing 0.05% Tween 20 surfactant to produce a 50 parts per million spray solution. A 5 part per million solution was then prepared from the 50 part per million stock.
Test unit preparation and infestation: One week old ‘Crookneck’ squash plants, trimmed to one cotyledon per plant, are infested with cotton aphids (all life stages). Sections of heavily infested colony squash leaves were placed on the untreated squash cotyledons 16-20 hrs prior to spraying. As the infested sections dried out, the aphids moved to the succulent plant material. Plants are examined to ensure even infestation prior to application.
Application: The plants are sprayed on both sides of all leaves with a hand-held atomizing sprayer until solutions are completely used. […]
Holding and assessment: The plants are allowed to air dry and are then held for 3 days in a controlled room at 26° C. and 40% relative humidity prior to grading. 3 days after treatment the aphids are assessed for insecticidal effects.

For experiment [2], the system named is Tobacco Budworm Heliothis virescens. In words: Insecticidal assay 8, tobacco budworm, diet cups. The class given is in vivo. The following applies: H. virescens second instar; 250 microliters of 400 ppm and 25 ppm solutions on diet in cups; assessed 5 days after infestation. The procedure: 8. Insecticidal Assay for Tobacco Budworm Heliothis virescens:
Objective: To assess the insecticidal activity of compounds against H. virescens through contact and ingestion.
Test unit preparation: 8 milliliters of lepidopteran diet is dispensed into one ounce clear plastic portion cups. The diet is allowed to cool before storage or use.
Formulation and application: Eight milligrams of technical compound is dissolved in 20 milliliters of 2:1 acetone:tap water diluent to form a 400 ppm solution. An aliquot of this solution is also used to prepare a 25 parts per million concentration. 250 microliters of each solution is then pipetted onto the surface the diet in each cup. Each treatment is replicated 10 times.
Infestation: Once the treated cups have dried, a single second-instar tobacco budworm is placed on the treated diet in each cup.
Holding and assessment: Treated and infested diet cups or are capped and then held in a chamber at 25° C. and 50% relative humidity. 14-hours light:10-hours dark. 5 days after infestation the larvae are assessed for insecticidal effects.

As for `N#Cc1c(NNc2c(Cl)cc(C(F)(F)F)cc2Cl)nc(C(F)(F)F)nc1C(F)(F)F` [Compound 11, 4-[N′-(2,6-dichloro-4-trifluoromethyl-phenyl)-hydrazino]-2,6-bis-trifluoromethyl-pyrimidine-5-carbonitrile], the insecticidal activity entry in experiment [1] and in experiment [2] was “significant insecticidal activity” in each case.
